Molecular target: T1, human TRH-DE (Homo sapiens, UniProt Q9UKU6)
T1 construct: expressed in transfected cells; host or cells: Expi 293 cells (transient expression), membrane fraction
T1 sequence (Q9UKU6 1-1069): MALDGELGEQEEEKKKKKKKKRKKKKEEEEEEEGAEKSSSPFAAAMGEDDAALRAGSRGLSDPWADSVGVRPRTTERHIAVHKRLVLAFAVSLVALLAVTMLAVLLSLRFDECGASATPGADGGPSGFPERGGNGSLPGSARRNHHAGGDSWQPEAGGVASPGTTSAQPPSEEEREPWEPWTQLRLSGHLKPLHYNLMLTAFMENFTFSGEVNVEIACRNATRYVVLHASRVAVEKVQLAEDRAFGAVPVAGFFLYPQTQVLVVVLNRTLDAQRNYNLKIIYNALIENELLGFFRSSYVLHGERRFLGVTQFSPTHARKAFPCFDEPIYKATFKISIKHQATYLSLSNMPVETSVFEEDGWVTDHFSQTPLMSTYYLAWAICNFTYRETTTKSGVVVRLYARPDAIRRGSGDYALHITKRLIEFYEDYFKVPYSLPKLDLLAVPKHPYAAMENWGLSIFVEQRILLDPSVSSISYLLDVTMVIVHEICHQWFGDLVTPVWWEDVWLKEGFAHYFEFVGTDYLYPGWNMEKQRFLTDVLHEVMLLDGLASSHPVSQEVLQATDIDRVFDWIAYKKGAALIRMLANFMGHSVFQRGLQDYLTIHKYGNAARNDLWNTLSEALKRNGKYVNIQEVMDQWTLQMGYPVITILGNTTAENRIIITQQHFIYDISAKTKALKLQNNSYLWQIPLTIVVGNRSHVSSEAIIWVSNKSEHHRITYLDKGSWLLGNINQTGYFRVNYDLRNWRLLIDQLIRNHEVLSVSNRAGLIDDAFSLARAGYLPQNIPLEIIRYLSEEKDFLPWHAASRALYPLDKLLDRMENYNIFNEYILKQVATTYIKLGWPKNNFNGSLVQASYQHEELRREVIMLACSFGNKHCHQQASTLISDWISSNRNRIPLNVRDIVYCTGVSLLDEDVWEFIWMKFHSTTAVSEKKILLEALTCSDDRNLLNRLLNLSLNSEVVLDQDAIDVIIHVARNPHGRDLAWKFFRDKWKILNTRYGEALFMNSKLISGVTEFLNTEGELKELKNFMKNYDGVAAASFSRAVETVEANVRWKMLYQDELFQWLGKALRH
Assay: TRH-DE inhibition test (RapidFire MS measurement of product Cyclo (His-Pro))
Type: biochemical
Conditions: membrane fraction of Expi 293 cells expressing human TRH-DE; 10 μM TRH substrate; room temperature, 2 hours; 16-point concentration test
Outline: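 Inhibition derived from product/internal-standard ratios of Cyclo(His-Pro), quantified by RapidFire triple-quadrupole MS after acetonitrile:methanol quench, with IC50 fitted over 16 concentrations. Enzyme source: membranes of Expi 293 cells transiently expressing human TRH-DE, 4 μg/ml, pH 7.4 phosphate buffer. Incubation with 10 μM substrate ran 2 h at room temperature.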

SMILES | IC50 [nM]
C[C@@H]1COc2cc(N(C)CC3CCCCC3)ncc2C(=O)N1C1CC2(C1)CN(S(=O)(=O)c1ccccc1F)C2 [Example 138] | 1
C[C@@H]1COc2cc(N(C)Cc3ccccc3)ncc2C(=O)N1C1CC2(C1)CN(S(=O)(=O)c1ccccc1F)C2 [Example 139] | 2
C[C@@H]1COc2cc(Nc3ccc(F)cc3)ncc2C(=O)N1C1CC2(C1)CN(S(=O)(=O)c1ccccc1F)C2 [Example 140] | 1
C[C@@H]1COc2cc(N(C)c3ccc(F)cc3)ncc2C(=O)N1C1CC2(C1)CN(S(=O)(=O)c1ccccc1F)C2 [Example 141] | 1
C[C@@H]1COc2cc(N3CCCC3)ncc2C(=O)N1C1CC2(C1)CN(S(=O)(=O)c1ccccc1F)C2 [Example 142] | 1
C[C@@H]1COc2cc(N3CC[C@H](F)C3)ncc2C(=O)N1C1CC2(C1)CN(S(=O)(=O)c1ccccc1F)C2 [Example 143] | 1
C[C@@H]1COc2cc(N3CC[C@@H](F)C3)ncc2C(=O)N1C1CC2(C1)CN(S(=O)(=O)c1ccccc1F)C2 [Example 144] | 1
C[C@@H]1COc2cc(N3CC(F)(F)C(F)(F)C3)ncc2C(=O)N1C1CC2(C1)CN(S(=O)(=O)c1ccccc1F)C2 [Example 147] | 1
C[C@@H]1COc2cc(N3C[C@H]4C[C@H]4C3)ncc2C(=O)N1C1CC2(C1)CN(S(=O)(=O)c1ccccc1F)C2 [Example 148] | < 1
C[C@@H]1COc2cc(N3CCCCC3)ncc2C(=O)N1C1CC2(C1)CN(S(=O)(=O)c1ccccc1F)C2 [Example 149] | 1
C[C@@H]1COc2cc(N3CCCC[C@@H]3C)ncc2C(=O)N1C1CC2(C1)CN(S(=O)(=O)c1ccccc1F)C2 [Example 150] | 1
C[C@@H]1CCCCN1c1cc2c(cn1)C(=O)N(C1CC3(C1)CN(S(=O)(=O)c1ccccc1F)C3)[C@H](C)CO2 [Example 151] | 1
CC1CCN(c2cc3c(cn2)C(=O)N(C2CC4(C2)CN(S(=O)(=O)c2ccccc2F)C4)[C@H](C)CO3)CC1 [Example 153] | 1
COC1CCN(c2cc3c(cn2)C(=O)N(C2CC4(C2)CN(S(=O)(=O)c2ccccc2F)C4)[C@H](C)CO3)CC1 [Example 154] | 2
C[C@@H]1COc2cc(N3CCC(F)CC3)ncc2C(=O)N1C1CC2(C1)CN(S(=O)(=O)c1ccccc1F)C2 [Example 155] | 1
C[C@@H]1COc2cc(N3CCC(F)(F)CC3)ncc2C(=O)N1C1CC2(C1)CN(S(=O)(=O)c1ccccc1F)C2 [Example 156] | 2
C[C@@H]1COc2cc(N3CCCC(F)(F)C3)ncc2C(=O)N1C1CC2(C1)CN(S(=O)(=O)c1ccccc1F)C2 [Example 157] | 1
C[C@@H]1COc2cc(N3CCN(C)CC3)ncc2C(=O)N1C1CC2(C1)CN(S(=O)(=O)c1ccccc1F)C2 [Example 158] | 6
C[C@@H]1COc2cc(N3CCCCCC3)ncc2C(=O)N1C1CC2(C1)CN(S(=O)(=O)c1ccccc1F)C2 [Example 159] | 1
C[C@@H]1COc2cc(N3CCCOCC3)ncc2C(=O)N1C1CC2(C1)CN(S(=O)(=O)c1ccccc1F)C2 [Example 160] | 1
C[C@@H]1CNc2nc(N3C[C@H]4C[C@H]4C3)ccc2C(=O)N1C1CC2(C1)CN(S(=O)(=O)c1ccccc1F)C2 [Example 161] | 1
C[C@@H]1CNc2nc(N3CC[C@H](F)C3)ccc2C(=O)N1C1CC2(C1)CN(S(=O)(=O)c1ccccc1F)C2 [Example 162, (3R)-4-[2-(2-fluorophenyl)sulfonyl-2-azaspiro[3.3]heptan-6-yl]-8-[(3S)-3-fluoropyrrolidin-1-yl]-3-methyl-2,3-dihydro-H-pyrido[2,3-e][1,4]diazepin-5-one] | 2

SMILES | IC50 [nM]
COc1ccc2c(n1)OC[C@@H](C)N(C1CC3(C1)CN(S(=O)(=O)c1ccccc1F)C3)C2=O [Example 163, (3R)-4-[2-(2-fluorophenyl)sulfonyl-2-azaspiro[3.3]heptan-6-yl]-8-methoxy-3-methyl-2,3-dihydropyrido[3,2-f][1,4]oxazepin-5-one] | 8
COc1cc2c(cn1)C(=O)N(C1CC3(C1)CN(S(=O)(=O)c1ccccc1F)C3)[C@H](C)CO2 [Example 165] | 2
COc1cnc2c(n1)OC[C@@H](C)N(C1CC3(C1)CN(S(=O)(=O)c1ccccc1F)C3)C2=O [Example 166] | 5
COc1nc2c(cc1F)C(=O)N(C1CC3(C1)CN(S(=O)(=O)c1ccccc1F)C3)[C@H](C)CO2 [Example 167, (3R)-7-fluoro-4-[2-(2-fluorophenyl)sulfonyl-2-azaspiro[3.3]heptan-6-yl]-8-methoxy-3-methyl-2,3-dihydropyrido[3,2-f][1,4]oxazepin-5-one] | 16
C[C@@H]1COc2nc(N3CC[C@H](F)C3)ncc2C(=O)N1C1CC2(C1)CN(S(=O)(=O)c1ccccc1F)C2 [Example 169] | 1
C[C@@H]1COc2c(cnn2C)C(=O)N1C1CC2(C1)CN(S(=O)(=O)c1ccccc1F)C2 [Example 170, (6R)-5-[2-(2-fluorophenyl)sulfonyl-2-azaspiro[3.3]heptan-6-yl]-1,6-dimethyl-6,7-dihydropyrazolo[4,3-f][1,4]oxazepin-4-one] | 7
C[C@@H]1COc2ncc(Br)cc2C(=O)N1C1CC2(C1)CN(S(=O)(=O)c1ccccc1F)C2 [Example 171] | 7
C[C@@H]1CCN2CCOC[C@@H]2C(=O)N1C1CC2(C1)CN(S(=O)(=O)c1ccccc1F)C2 [Example 172] | 110
Cc1nc2c(s1)C(=O)N(C1CC3(C1)CN(S(=O)(=O)c1ccccc1F)C3)[C@H](C)CO2 [Example 175] | 12
C[C@@H]1COc2nc(C(F)F)sc2C(=O)N1C1CC2(C1)CN(S(=O)(=O)c1ccccc1F)C2 [Example 176] | 13
C[C@@H]1COc2nc(C(C)(F)F)sc2C(=O)N1C1CC2(C1)CN(S(=O)(=O)c1ccccc1F)C2 [Example 178] | 12
C[C@@H]1COc2nc(C3CC3)sc2C(=O)N1C1CC2(C1)CN(S(=O)(=O)c1ccccc1F)C2 [Example 180] | 4
C[C@@H]1COc2nc(C3(F)CC3)sc2C(=O)N1C1CC2(C1)CN(S(=O)(=O)c1ccccc1F)C2 [Example 181] | 6
C[C@H]1COc2nc(C3(F)CC3)sc2C(=O)N1C1CC2(C1)CN(S(=O)(=O)c1ccccc1F)C2 [Example 182] | 154
C[C@@H]1COc2nc(C3(C(F)(F)F)CC3)sc2C(=O)N1C1CC2(C1)CN(S(=O)(=O)c1ccccc1F)C2 [Example 183] | 5
Cc1cc2n(n1)CC[C@@H](C)N(C1CC3(C1)CN(S(=O)(=O)c1ccccc1F)C3)C2=O [Example 184] | 16
Cc1nn2c(c1C)C(=O)N(C1CC3(C1)CN(S(=O)(=O)c1ccccc1F)C3)[C@H](C)CC2 [Example 185] | 24
C[C@@H]1CCn2nc(Cl)cc2C(=O)N1C1CC2(C1)CN(S(=O)(=O)c1ccccc1F)C2 [Example 186] | 21
C[C@@H]1CCn2nc(C(C)(F)F)cc2C(=O)N1C1CC2(C1)CN(S(=O)(=O)c1ccccc1F)C2 [Example 187] | 20
C[C@@H]1CCn2nc(C3CC3)cc2C(=O)N1C1CC2(C1)CN(S(=O)(=O)c1ccccc1F)C2 [Example 188] | 8
C[C@H]1CCn2nc(C3CC3)cc2C(=O)N1C1CC2(C1)CN(S(=O)(=O)c1ccccc1F)C2 [Example 189] | 68
C[C@@H]1CCn2nc(C3(F)CC3)cc2C(=O)N1C1CC2(C1)CN(S(=O)(=O)c1ccccc1F)C2 [Example 190] | 11
